PMC12775434, “Ultra-large virtual screening unveils potent agonists of the neuromodulatory orphan receptor GPR139” (Nature Communications, 2025)
Values joined by “and” are separate entries in the source; they are usually repeats but may differ in a detail not shown here. Identical values can stand only once. Like-named read-outs stand apart in the source and are kept apart here.

Columns and labels:
GPR139 [1] = target: T1, GPR139 (Homo sapiens, UniProt Q6DWJ6); test: Inositol monophosphate (IP1) accumulation assay, GPR139-CHOk1; format: cell-based; details: for EC50: read-out: pEC50 IP1 (converted)
T1 sequence (Q6DWJ6 1-353): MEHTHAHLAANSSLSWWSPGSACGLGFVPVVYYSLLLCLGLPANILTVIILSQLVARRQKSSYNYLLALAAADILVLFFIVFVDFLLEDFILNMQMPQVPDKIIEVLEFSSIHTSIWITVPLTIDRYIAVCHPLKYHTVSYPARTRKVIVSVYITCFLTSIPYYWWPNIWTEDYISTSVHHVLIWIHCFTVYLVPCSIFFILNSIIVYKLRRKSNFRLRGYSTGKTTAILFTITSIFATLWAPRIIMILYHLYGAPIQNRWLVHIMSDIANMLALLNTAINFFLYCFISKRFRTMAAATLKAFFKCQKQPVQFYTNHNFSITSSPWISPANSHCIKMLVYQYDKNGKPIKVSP
Description: Primary screening and pharmacological characterization of compounds were performed using a CHO-K1 cell line that stably expresses human GPR139 (GPR139-CHOk1). The GPR139-CHOk1 cell line was kindly provided by H. Lundbeck A/S, Denmark[24]. GPR139-CHOk1 cells were grown in Ham’s F-12 Kaighn’s Modification Medium (ThermoFisher #21127030) supplemented with 10% dialyzed fetal bovine serum (US origin, ThermoFisher #26400044), 100 units/mL Penicillin-Streptomycin (ThermoFisher #15140122), and 1 mg/mL Geneticin (ThermoFisher #11811031). […] M1R-CHOk1 cells were purchased from The Missouri S&T cDNA Resource Center (#CEM100TN00). M1R-CHOk1 cells were grown in Ham’s F12 Medium (ThermoFisher #21765029) supplemented with 10% fetal bovine serum (Brazilian origin, ThermoFisher #10270106), 100 units/mL Penicillin-Streptomycin, and 0.25 mg/mL Geneticin. HEK293A cells transiently transfected with GPR139 were used for additional pharmacological assessment of signaling pathways activated by GPR139. HEK239A cells were generously provided by Dr. Asuka Inoue, Tohoku University, Japan. HEK293A cells were grown in Dulbecco’s Modified Eagle Medium (ThermoFisher #31966047) supplemented with 10% dialyzed fetal bovine serum and 100 units/mL Penicillin-Streptomycin. Cell lines were maintained at 37 °C in humidified incubator equilibrated with 5% CO2.
HTRF IP-One Gq kit (Cisbio #62IPAPEC) was used to detect the accumulation of inositol monophosphate (IP1) as described in the work by Shehata et al.[26]. GPR139-CHOk1 cells were dissociated and resuspended in HEPES buffer. 50,000 cells in 5 µL and 5 µL test compounds diluted from DMSO stocks (final DMSO concentration of maximally 0.3%) in HEPES buffer supplemented with 40 mM LiCl were mixed in each well of white 384-well OptiPlate (PerkinElmer #6007290). The cells were incubated for 1 h at 37 °C. Then, 10 µL detection reagent composed of 2.5% Eu3 + -anti-IP1 antibody and 2.5% IP1-d2 diluted in lysis buffer was added, and the cells were incubated for 1 h at room temperature before measurements. Measurements were performed on EnVision Multimode Plate Reader (PerkinElmer) using excitation light of 340 nm and emission light of 615 nm and 665 nm. The time resolved-fluorescence resonance energy transfer (TR-FRET) 665 nm/615 nm ratio, which is inversely proportional to the IP1 accumulation, was used to determine the IP1 response.
Pharmacological data and statistical analyses were performed in GraphPad Prism v9–10 (Graphpad Software Inc., San Diego, CA), which are also specifically described in the figure and table legends. The functional assay responses were normalized to buffer (0%) and Lundbeck Cmp 1a or JNJ-63533054 (100%), for Ca^2+ and IP1 experiments in the GPR139-CHOk1 stable cell line or Ca^2+, G protein activation, and arrestin-3 recruitment experiments in the HEK293A cells transiently transfected with GPR139, respectively. Data are from at least three independent experiments, unless stated otherwise. Concentration-response curves were fitted applying non-linear regression using the log (agonist) versus response model with variable slope. ANOVA was applied for comparing results and determining statistical significance. Comparison of responses to the reference was performed using one-way ANOVA with Dunnett’s multiple comparisons test at significance threshold of p < 0.05. Comparison of responses across assays and ligands was performed using two-way ANOVA with Tukey’s multiple comparisons test at a significance threshold of p < 0.05.

GPR139 [2] = target: T1, GPR139; test: Ca2+ mobilization assay, antagonist mode (EC80 800 nM Lundbeck Cmp 1a after 20 min preincubation), GPR139-CHOk1; format: cell-based
In short: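 Fluo-4-loaded GPR139-CHOk1 cells in HEPES-buffered HBSS (pH 7.4, 2.5 mM probenecid) given test compounds at 10 µM, then after 20 min challenged with 800 nM Lundbeck Cmp 1a (EC80). Calcium fluorescence read at 37 °C, 485/525 nm.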

## Cc1cc(-c2nc(CC(=O)NC(C)c3ccccc3)no2)n(C)n1 (stereo not drawn) [Compound 1.16, CC(C1=CC=CC=C1)NC(CC2=NOC(C3=CC(C)=NN3C)=N2)=O]
GPR139 [1]; Supplementary Table 2, mean ± SEM
  EC50: 2.51 µM
GPR139 [1]; Supplementary Table 2, normalized to Lundbeck Cmp 1a, read-out: Emax (%) IP1
  Emax: 118 ± 5%
GPR139 [1]; log [compound] M -4.5, individual replicates
  IP1 response (% of Cmp 1a): 95 % of Cmp 1a and 98 % of Cmp 1a and 122 % of Cmp 1a and 128 % of Cmp 1a
GPR139 [1]; log [compound] M -5.0, individual replicates
  IP1 response (% of Cmp 1a): 115 % of Cmp 1a and 88 % of Cmp 1a and 90 % of Cmp 1a and 87 % of Cmp 1a
GPR139 [1]; log [compound] M -5.5, individual replicates
  IP1 response (% of Cmp 1a): 53 % of Cmp 1a and 54 % of Cmp 1a and 79 % of Cmp 1a and 67 % of Cmp 1a
GPR139 [1]; log [compound] M -6.0, individual replicates
  IP1 response (% of Cmp 1a): 44 % of Cmp 1a and 38 % of Cmp 1a (2×) and 47 % of Cmp 1a
GPR139 [1]; log [compound] M -6.5, individual replicates
  IP1 response (% of Cmp 1a): 8 % of Cmp 1a and 17 % of Cmp 1a and 10 % of Cmp 1a and 15 % of Cmp 1a
GPR139 [1]; log [compound] M -7.0, individual replicates
  IP1 response (% of Cmp 1a): -3.74 % of Cmp 1a and -1.83 % of Cmp 1a and 5.46 % of Cmp 1a and 8 % of Cmp 1a
GPR139 [1]; log [compound] M -7.5, individual replicates
  IP1 response (% of Cmp 1a): -0.538 % of Cmp 1a and 1 % of Cmp 1a and -0.216 % of Cmp 1a and 6 % of Cmp 1a
GPR139 [1]; log [compound] M -8.0, individual replicates
  IP1 response (% of Cmp 1a): -11 % of Cmp 1a and -1 % of Cmp 1a and 0.939 % of Cmp 1a and 0.124 % of Cmp 1a
GPR139 [2]; individual replicates (Supplementary Figure 4)
  Ca2+ signal (% of Cmp 1a): 5 % of Cmp 1a and 13 % of Cmp 1a and -4.67 % of Cmp 1a

## CC(NC(=O)Cn1cncc(-c2ccccc2)c1=O)c1ccccc1 (stereo not drawn) [Compound 5, C[C@@H](NC(=O)CN1C=NC=C(C=2C=CC=CC2)C1=O)C=3C=CC=CC3]
GPR139 [1]; log [Compound] M -4.5, replicate experiments
  IP1 response (% of Cmp 1a): 68 % of Cmp 1a and 53 % of Cmp 1a and 56 % of Cmp 1a
GPR139 [1]; log [Compound] M -5.0, replicate experiments
  IP1 response (% of Cmp 1a): 33 % of Cmp 1a and 17 % of Cmp 1a and 31 % of Cmp 1a
GPR139 [1]; log [Compound] M -5.5, replicate experiments
  IP1 response (% of Cmp 1a): 13 % of Cmp 1a (2×) and 9 % of Cmp 1a
GPR139 [1]; log [Compound] M -6.0, replicate experiments
  IP1 response (% of Cmp 1a): 7 % of Cmp 1a and -0.0762 % of Cmp 1a and 3.67 % of Cmp 1a
GPR139 [1]; log [Compound] M -6.5, replicate experiments
  IP1 response (% of Cmp 1a): -1.74 % of Cmp 1a and -4 % of Cmp 1a and 0.455 % of Cmp 1a
GPR139 [1]; log [Compound] M -7.0, replicate experiments
  IP1 response (% of Cmp 1a): 2.62 % of Cmp 1a and -1.59 % of Cmp 1a and -2.51 % of Cmp 1a
GPR139 [1]; log [Compound] M -7.5, replicate experiments
  IP1 response (% of Cmp 1a): 0.67 % of Cmp 1a and -2.55 % of Cmp 1a and -3 % of Cmp 1a
GPR139 [1]; log [Compound] M -8.0, replicate experiments
  IP1 response (% of Cmp 1a): -0.409 % of Cmp 1a and -3 % of Cmp 1a and -0.447 % of Cmp 1a
GPR139 [1]
  EC50: 25.1 µM
GPR139 [2]; individual replicates (Supplementary Figure 1)
  Ca2+ signal (% of Cmp 1a): 38.6236 % of Cmp 1a and 37.7276 % of Cmp 1a and 30.4652 % of Cmp 1a
